29 compounds from patent US20240150293A1, “SPIROCYCLOHEXANE DERIVATIVES, PHARMACEUTICAL COMPOSITIONS CONTAINING THEM AND THEIR USES AS ANTI-APOPTOTIC INHIBITORS” (LES LABORATOIRES SERVIER, priority 2021, published 2024) can be followed below.

Sequence of Mcl-1 protein (Q07820 whole entry): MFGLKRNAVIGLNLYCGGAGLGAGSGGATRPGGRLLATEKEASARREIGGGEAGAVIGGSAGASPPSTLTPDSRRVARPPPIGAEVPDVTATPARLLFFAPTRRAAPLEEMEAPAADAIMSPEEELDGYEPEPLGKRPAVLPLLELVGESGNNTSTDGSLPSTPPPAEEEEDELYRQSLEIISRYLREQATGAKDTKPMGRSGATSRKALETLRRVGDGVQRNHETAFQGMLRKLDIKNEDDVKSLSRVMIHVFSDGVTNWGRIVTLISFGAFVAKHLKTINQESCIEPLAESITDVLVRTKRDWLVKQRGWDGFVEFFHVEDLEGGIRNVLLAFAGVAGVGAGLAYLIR

This test addresses Mcl-1 protein (UniProtKB Q07820) (Homo sapiens (Human), UniProt Q07820). Kind of test: Inhibition of Mcl-1 by the fluorescence polarisation assay (Example A, Method A). As to conditions: fluorescence polarization assay. The test is classed as binding. A digest of the protocol:
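Protein (5 nM) and fluorescein-tagged peptide tracer (1 nM) incubated with 11-point compound series for 2 h at room temperature in HEPES/NaCl/Tween 20 buffer, pH 7.4, 5% DMSO. Displacement read as decrease in polarisation; IC50 fitted by 4-parameter logistic, converted to Ki (cKi or eKi).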
In general terms: In fluorescence polarisation assays a small probe gives low polarisation when free and higher when bound to something large.
A word on the Ki: it is the equilibrium dissociation constant of an inhibitor or competing ligand from its target. On to `O=C(O)[C@]1(Nc2cccc(Cl)c2)CC[C@@]2(CC1)c1ccccc1CC2CCCOc1ccc(F)cc1` (some centres unmarked) [Example 425, (1r,4r)-4-(3-chloroanilino)-2′-[3-(4-fluorophenoxy)propyl]-2′,3′-dihydrospiro[cyclohexane-1,1′-indene]-4-carboxylic acid], for which the Ki was determined as 477 nM.

For `COc1ccc(Cl)c(C2Cc3ccccc3[C@]23CC[C@@](Nc2cccc(Cl)c2)(C(=O)O)CC3)c1` (single isomer, unassigned) [Example 258, (1r,4r)-4-(3-chloroanilino)-2′-(2-chloro-5-methoxyphenyl)-2′,3′-dihydrospiro[cyclohexane-1,1′-indene]-4-carboxylic acid], the Ki is 2370 nM.

Turning to `CN1c2ccc(/C=C/Cc3ccccc3)cc2[C@]2(CC[C@](Nc3cccc(Br)c3)(C(=O)O)CC2)C1=O` [Example 19, (1r,4r)-4-(3-bromoanilino)-1′-methyl-2′-oxo-5′-[(1E)-3-phenylprop-1-en-1-yl]-1′,2′-dihydrospiro[cyclohexane-1,3′-indole]-4-carboxylic acid], the Ki is 21100 nM.

Turning to `COc1ccc(C)c(C2=Cc3ccccc3[C@]23CC[C@@](Nc2cccc(Cl)c2)(C(=O)O)CC3)c1` [Example 252, (1s,4s)-4-(3-chloroanilino)-2′-(5-methoxy-2-methylphenyl)spiro[cyclohexane-1,1′-indene]-4-carboxylic acid], the Ki came to 5270 nM. In the case of `O=C(O)[C@]1(Nc2cccc(Cl)c2)CC[C@@]2(CC1)c1ccccc1CC2c1ccc2ccoc2c1` (single isomer, unassigned) [Example 290, (1r,4r)-2′-(1-benzofuran-6-yl)-4-(3-chloroanilino)-2′,3′-dihydrospiro[cyclohexane-1,1′-indene]-4-carboxylic acid] it was 14400 nM; in that of `COc1ccc2c(c1)[C@]1(CC[C@@](Nc3cccc(Br)c3)(C(=O)O)CC1)C(Cc1ccccc1)C2` (some centres unmarked) [Example 127, (1r,4r)-2′-benzyl-4-(3-bromoanilino)-6′-methoxy-2′,3′-dihydrospiro[cyclohexane-1,1′-indene]-4-carboxylic acid], 2820 nM. For `C=CCOC1Cc2ccccc2[C@]12CC[C@@](Nc1cccc(Br)c1)(C(=O)O)CC2` (some centres unmarked) [Example 121, (1s,4s)-4-(3-bromoanilino)-2′-[(prop-2-en-1-yl)oxy]-2′,3′-dihydrospiro[cyclohexane-1,1′-indene]-4-carboxylic acid], the Ki came to 1550 nM. Regarding `Cc1cccc(CCOCC2=Cc3ccccc3[C@]23CC[C@@](Nc2cccc(Cl)c2)(C(=O)O)CC3)c1` [Example 411, (1s,4s)-4-(3-chloroanilino)-2′-{[2-(3-methylphenyl)ethoxy]methyl}spiro[cyclohexane-1,1′-indene]-4-carboxylic acid], the Ki stood at 583 nM. Next, `O=C(O)[C@]1(Nc2cccc(Cl)c2)CC[C@@]2(C=Cc3ccccc32)CC1` [Example 64, (1r,4r)-4-(3-chloroanilino)spiro[cyclohexane-1,1′-indene]-4-carboxylic acid]: 735 nM. Next, `O=C(O)[C@]1(Nc2cccc(Cl)c2)CC[C@@]2(CC1)c1ccccc1CC2CCCS(=O)(=O)c1ccccc1` (some centres unmarked) [Example 398, (1r,4r)-2′-[3-(benzenesulfonyl)propyl]-4-(3-chloroanilino)-2′,3′-dihydrospiro[cyclohexane-1,1′-indene]-4-carboxylic acid]: 1310 nM.

Turning to `Cc1cccc(C)c1C1=Cc2ccccc2[C@]12CC[C@@](Nc1cccc(Cl)c1)(C(=O)O)CC2` [Example 249, (1s,4s)-4-(3-chloroanilino)-2′-(2,6-dimethylphenyl)spiro[cyclohexane-1,1′-indene]-4-carboxylic acid], the Ki is 19000 nM.

In the case of `O=C(O)[C@]1(Nc2cccc(Cl)c2)CC[C@@]2(CC1)c1ccccc1CC2c1cccc2ccoc12` (single isomer, unassigned) [Example 293, (1r,4r)-2′-(1-benzofuran-7-yl)-4-(3-chloroanilino)-2′,3′-dihydrospiro[cyclohexane-1,1′-indene]-4-carboxylic acid], the Ki amounted to 499 nM. For `O=C(NCCc1ccccc1)C1Cc2ccccc2[C@]12CC[C@@](Nc1cccc(Cl)c1)(C(=O)O)CC2` (single isomer, unassigned) [Example 406, (1r,4r)-4-(3-chloroanilino)-2′-[(2-phenylethyl)carbamoyl]-2′,3′-dihydrospiro[cyclohexane-1,1′-indene]-4-carboxylic acid], the inhibition constant Ki is 6170 nM.

As for `O=C(O)[C@]1(Nc2cccc(Cl)c2)CC[C@@]2(CC1)c1ccccc1C[C@@H]2C1CCC1` [Example 101, (1r,2′R,4R)-4-(3-chloroanilino)-2′-cyclobutyl-2′,3′-dihydrospiro[cyclohexane-1,1′-indene]-4-carboxylic acid], the Ki was found to be 27000 nM. In the case of `O=C(O)C1(Nc2cccc(Cl)c2)CCC2(CC1)c1ccccc1CC2c1ccc(OCc2cccnc2)cc1` (centres unmarked) [Example 368, (1r,4r)-4-(3-chloroanilino)-2′-{4-[(pyridin-3-yl)methoxy]phenyl}-2′,3′-dihydrospiro[cyclohexane-1,1′-indene]-4-carboxylic acid] it was 1320 nM; in that of `O=C(O)[C@]1(Nc2cccc(Cl)c2)CC[C@@]2(CC1)c1ccccc1CC2CCOc1ccnc2ccsc12` (some centres unmarked) [Example 186, (1r,4r)-4-(3-chloroanilino)-2′-{2-[(thieno[3,2-b]pyridin-7-yl)oxy]ethyl}-2′,3′-dihydrospiro[cyclohexane-1,1′-indene]-4-carboxylic acid], 123 nM; in that of `O=C(NCCc1ccccc1)C1Cc2ccccc2[C@]12CC[C@@](Nc1cccc(Cl)c1)(C(=O)O)CC2` (single isomer, unassigned) [Example 405, (1r,4r)-4-(3-chloroanilino)-2′-[(2-phenylethyl)carbamoyl]-2′,3′-dihydrospiro[cyclohexane-1,1′-indene]-4-carboxylic acid], 15200 nM. Next, `Cc1cc(C2Cc3ccccc3C23CCC(Nc2cccc(Br)c2)(C(=O)O)CC3)cs1` (centres unmarked) [Example 232, 4-(3-bromoanilino)-2′-(5-methylthiophen-3-yl)-2′,3′-dihydrospiro[cyclohexane-1,1′-indene]-4-carboxylic acid]: 578 nM. As for `Cc1cnccc1OCCCN1Cc2ccccc2[C@]12CC[C@@](Nc1cccc(Cl)c1)(C(=O)O)CC2` [Example 37, (1s,4s)-4-(3-chloroanilino)-2′-{3-[(3-methylpyridin-4-yl)oxy]propyl}-2′,3′-dihydrospiro[cyclohexane-1,1′-isoindole]-4-carboxylic acid], the Ki was found to be 295 nM. For `O=C(O)[C@]1(Nc2cccc(Cl)c2)CC[C@@]2(CC1)c1ccccc1CC2c1ccc(OCc2ccccc2)cc1` (single isomer, unassigned) [Example 353, (1r,4r)-2′-[4-(benzyloxy)phenyl]-4-(3-chloroanilino)-2′,3′-dihydrospiro[cyclohexane-1,1′-indene]-4-carboxylic acid], the Ki worked out at 8720 nM. On to `O=C(O)[C@]1(Nc2cccc(Cl)c2)CC[C@@]2(CC1)c1ccccc1CC2c1cccc(OCC2CC2)c1` (single isomer, unassigned) [Example 355, (1r,4r)-4-(3-chloroanilino)-2′-[3-(cyclopropylmethoxy)phenyl]-2′,3′-dihydrospiro[cyclohexane-1,1′-indene]-4-carboxylic acid], for which the Ki worked out at 9960 nM.

Regarding `O=C(O)[C@]1(Nc2cccc(Cl)c2)CC[C@]2(CC1)C(c1cccc(C(F)(F)F)c1)=Cc1ccccc12` [Example 312, (1s,4s)-4-(3-chloroanilino)-2′-[3-(trifluoromethyl)phenyl]spiro[cyclohexane-1,1′-indene]-4-carboxylic acid], the Ki was determined as 839 nM.

With `O=C(O)[C@]1(Nc2cccc(Br)c2)CC[C@]2(CC1)C(CCCOc1ccnc3ccsc13)=Cc1ccccc12` [Example 454, (1r,4r)-4-(3-bromoanilino)-2′-{3-[(thieno[3,2-b]pyridin-7-yl)oxy]propyl}spiro[cyclohexane-1,1′-indene]-4-carboxylic acid], the Ki stood at 141 nM. As for `O=C(O)[C@]1(Nc2cccc(Cl)c2)CC[C@]2(C=Cc3ccccc32)CC1` [Example 65, (1s,4s)-4-(3-chloroanilino)spiro[cyclohexane-1,1′-indene]-4-carboxylic acid], the inhibitory constant (Ki) was 4990 nM. In the case of `O=C(O)[C@]1(Nc2cccc(Cl)c2)CC[C@@]2(CC1)c1ccccc1CC2CCCc1ccc(Cl)cc1` (some centres unmarked) [Example 162, (1r,4r)-4-(3-chloroanilino)-2′-[3-(4-chlorophenyl)propyl]-2′,3′-dihydrospiro[cyclohexane-1,1′-indene]-4-carboxylic acid] it was 558 nM; in that of `Cc1n[nH]c2cccc(OCCCC3Cc4ccccc4[C@]34CC[C@@](Nc3cccc(Cl)c3)(C(=O)O)CC4)c12` (mixture of isomers) [Example 453, (1r,4r)-4-(3-chloroanilino)-2′-{3-[(3-methyl-1H-indazol-4-yl)oxy]propyl}-2′,3′-dihydrospiro[cyclohexane-1,1′-indene]-4-carboxylic acid], 318 nM; in that of `O=C(O)[C@]1(Nc2cccc(Cl)c2)CC[C@]2(CC1)C(CCOCc1ccccc1)=Cc1ccccc12` [Example 395, (1r,4r)-2′-[2-(benzyloxy)ethyl]-4-(3-chloroanilino)spiro[cyclohexane-1,1′-indene]-4-carboxylic acid], 101 nM. With `O=C(O)C1(Nc2cccc(Br)c2)CCC2(CC1)c1ccccc1CC2CCCc1ccccc1` (single isomer, unassigned) [Example 151, (1r,4r)-4-(3-bromoanilino)-2′-(3-phenylpropyl)-2′,3′-dihydrospiro[cyclohexane-1,1′-indene]-4-carboxylic acid], the Ki was 1340 nM. Next, `O=C(O)[C@]1(Nc2cccc(Cl)c2)CC[C@@]2(CC1)c1ccccc1CC2c1cccc2ccoc12` (single isomer, unassigned) [Example 294, (1r,4r)-2′-(1-benzofuran-7-yl)-4-(3-chloroanilino)-2′,3′-dihydrospiro[cyclohexane-1,1′-indene]-4-carboxylic acid]: 6630 nM.
